Measured values published in US20150024934A1, “CONTROLLING CHARCOAL ROT WITH FLUTRIAFOL” (CHEMINOVA A/S, priority 2013, published 2015).

What was measured:
Macrophomina phaseolina = test: Mycelial colony growth on flutriafol-amended PDA; assay type: cell-based; conditions: 1x; for Dia (mm) 1 day: untreated 28.2; for Dia (mm) 3 days / Dia (mm) 5 days / Dia (mm) 7 days: untreated 40
Procedure: Inhibition of Macrophomina phaseolina (charcoal rot) was tested in the following example: The flutriafol composition used in the example was TOPGUARD (125 g/L flutriafol SC), a commercially available product.
Each pathogen was grown out on fresh potato dextrose agar (commercial PDA), assessed and used to seed 2× autoclaved rice for inoculums development. At 7-10 days, two infested rice grains with the pathogen was placed at equal distances on flutriafol-amended PDA and incubated at 27-29° C. Mycelial colony diameter from each rice grain was measured at 1, 3, 5 and 7 days from grain placement. The included tables and data sets illustrate the differences in mycelia growth in response to various concentrations of the fungicide.

charcoal rot = test: Strawberry field trial for control of charcoal rot (infected plants, yield); assay type: in vivo; conditions: applied either surface incorporated or via buried drip

Question: Which “Dia (mm) 1 day” value (Macrophomina phaseolina; 0.01 ppm) does the source give for `OC(Cn1cncn1)(c1ccc(F)cc1)c1ccccc1F` (racemic) [flutriafol, (RS)-2,4′-difluoro-α-(1H-1,2,4-triazol-1-ylmethyl)benzhydryl alcohol] here?
Answer: 25.5 mm

Question: And the “Dia (mm) 3 days” value (Macrophomina phaseolina; 0.01 ppm)?
Answer: 40 mm

Question: What about the “Dia (mm) 5 days” value (Macrophomina phaseolina; 0.01 ppm) of the same molecule?
Answer: 40 mm

Question: And the “Dia (mm) 7 days” value (Macrophomina phaseolina; 0.01 ppm)?
Answer: 40 mm

Question: And the “Dia (mm) 1 day” value (Macrophomina phaseolina; 0.1 ppm)?
Answer: 22.3 mm

Question: And the “Dia (mm) 3 days” value (Macrophomina phaseolina; 0.1 ppm)?
Answer: 40 mm

Question: What about the “Dia (mm) 5 days” value (Macrophomina phaseolina; 0.1 ppm) of the same molecule?
Answer: 40 mm

Question: And the “Dia (mm) 7 days” value (Macrophomina phaseolina; 0.1 ppm)?
Answer: 40 mm

Question: And the “Dia (mm) 1 day” value (Macrophomina phaseolina; 1 ppm)?
Answer: 13.9 mm

Question: What about the “Dia (mm) 3 days” value (Macrophomina phaseolina; 1 ppm) of the same molecule?
Answer: 38.6 mm

Question: And the “Dia (mm) 5 days” value (Macrophomina phaseolina; 1 ppm)?
Answer: 40 mm

Question: And the “Dia (mm) 7 days” value (Macrophomina phaseolina; 1 ppm)?
Answer: 40 mm

Question: What about the “Dia (mm) 1 day” value (Macrophomina phaseolina; 10 ppm) of the same molecule?
Answer: 0 mm

Question: What about the “Dia (mm) 3 days” value (Macrophomina phaseolina; 10 ppm) of the same molecule?
Answer: 3.5 mm

Question: What about the “Dia (mm) 5 days” value (Macrophomina phaseolina; 10 ppm) of the same molecule?
Answer: 3.5 mm

Question: What about the “Dia (mm) 7 days” value (Macrophomina phaseolina; 10 ppm) of the same molecule?
Answer: 5.1 mm

Question: And the “Dia (mm) 1 day” value (Macrophomina phaseolina; 100 ppm)?
Answer: 0 mm

Question: And the “Dia (mm) 3 days” value (Macrophomina phaseolina; 100 ppm)?
Answer: 0 mm

Question: And the “Dia (mm) 5 days” value (Macrophomina phaseolina; 100 ppm)?
Answer: 0 mm

Question: And the “Dia (mm) 7 days” value (Macrophomina phaseolina; 100 ppm)?
Answer: 0 mm

Question: What about the “Dia (mm) 1 day” value (Macrophomina phaseolina; 250 ppm, mycelial colony diameter, TOPGUARD 125 g/L SC in PDA) of the same molecule?
Answer: 0 mm

Question: What about the “Dia (mm) 3 days” value (Macrophomina phaseolina; 250 ppm) of the same molecule?
Answer: 0 mm

Question: What about the “Dia (mm) 5 days” value (Macrophomina phaseolina; 250 ppm) of the same molecule?
Answer: 0 mm

Question: And the “Dia (mm) 7 days” value (Macrophomina phaseolina; 250 ppm)?
Answer: 0 mm

Question: And the “effect on charcoal rot” value (charcoal rot)?
Answer: significantly reduced charcoal rot
